Assay results taken from patent publication US20200253211A1, “PHOTODYNAMIC INHIBITION OF MICROBIAL PATHOGENS IN PLANTS” (SUNCOR ENERGY INC, priority 2017, published 2020).
Read-outs that look alike come from different tables or passages of the source.

Experiments:
Type in all cases: cell-based
Sclerotinia homoeocarpa [1] = test: Radial growth of dollar spot fungus after treatment of plugs in PBS (24 well plates), dark vs light; conditions: for inhibition at 500 µM / inhibition at 1500 µM: Clarireedia homoeocarpa
Method: In this example, control of dollar spot fungus (Sclerotinia homoeocarpa) with chlorins combined with a chelating agent was assessed. Treatments were prepared in Phosphate Buffered Saline (PBS) in 24 well plates (in duplicates for light vs. dark incubation) at desired concentrations. Then, a 5 mm diameter plug of a Sclerotinia homoeocarpa isolate (3 isolates total tested) was inoculated into the PBS and incubated at 21° C. in the dark for 2 hours. After 2 hours, one of the 24 well plates (with isolates in triplicate) is left in the dark and one 24 well plate is placed under illumination for 1 hour (all at 21° C.). Following illumination, fungal plugs are removed from PBS, blotted dry on sterile filter paper and transferred to non-amended Potato Dextrose Agar (PDA). Radial growth of the fungus is monitored daily until the growth of S. homoeocarpa reaches the edge of the Petri-dish. Illumination is provided by LED lights emitting about 1000 μmol/m^2/s photosynthetically active radiation (PAR). In this example, control of dollar spot fungus (Sclerotinia homoeocarpa) with Zinc Protoporphyrin IX (Zn-PPIX) combined with EDTA was assessed. Treatments were prepared in Phosphate Buffered Saline (PBS) in 24 well plates (in duplicates for light vs. dark incubation) at desired concentrations. Then, a 5 mm diameter plug of a Sclerotinia homoeocarpa isolate (3 isolates total tested) was inoculated into the PBS and incubated at 21° C. in the dark for 2 hours. After 2 hours, one of the 24 well plates (with isolates in triplicate) is left in the dark and one 24 well plate is placed under illumination for 1 hour (all at 21° C.). Following illumination, fungal plugs are removed from PBS, blotted dry on sterile filter paper and transferred to non-amended Potato Dextrose Agar (PDA). Radial growth of the fungus is monitored daily until the growth of S. homoeocarpa reaches the edge of the Petri-dish. Illumination is provided by LED lights emitting about 1000 μmol/m^2/s photosynthetically active radiation (PAR). In this example, control of dollar spot fungus (Sclerotinia homoeocarpa) with bacteriochlorin combined with EDTA was assessed. Treatments were prepared in Phosphate Buffered Saline (PBS) in 24 well plates (in duplicates for light vs. dark incubation) at desired concentrations. Then, a 5 mm diameter plug of a Sclerotinia homoeocarpa isolate (3 isolates total tested) was inoculated into the PBS and incubated at 21° C. in the dark for 2 hours. After 2 hours, one of the 24 well plates (with isolates in triplicate) is left in the dark and one 24 well plate is placed under illumination for 1 hour (all at 21° C.). Following illumination, fungal plugs are removed from PBS, blotted dry on sterile filter paper and transferred to non-amended Potato Dextrose Agar (PDA). Radial growth of the fungus is monitored daily until the growth of S. homoeocarpa reaches the edge of the Petri-dish. Illumination is provided by LED lights emitting about 1000 μmol/m^2/s photosynthetically active radiation (PAR). In this example, control of dollar spot fungus (Sclerotinia homoeocarpa) with Aluminum chlorin e6 combined with EDTA was assessed. Treatments were prepared in Phosphate Buffered Saline (PBS) in 24 well plates (in duplicates for light vs. dark incubation) at desired concentrations. Then, a 5 mm diameter plug of a Sclerotinia homoeocarpa isolate (3 isolates total tested) was inoculated into the PBS and incubated at 21° C. in the dark for 2 hours. After 2 hours, one of the 24 well plates (with isolates in triplicate) is left in the dark and one 24 well plate is placed under illumination for 1 hour (all at 21° C.). Following illumination, fungal plugs are removed from PBS, blotted dry on sterile filter paper and transferred to non-amended Potato Dextrose Agar (PDA). Radial growth of the fungus is monitored daily until the growth of S. homoeocarpa reaches the edge of the Petri-dish. Illumination is provided by LED lights emitting about 1000 μmol/m^2/s photosynthetically active radiation (PAR). […]

Sclerotinia homoeocarpa [2] = test: Radial growth of dollar spot fungus on amended Potato Dextrose Agar, dark vs light; conditions: for inhibition at 500 µM / inhibition at 1000 µM / inhibition at 2000 µM: Clarireedia homoeocarpa
E. Coli K-12 = test: E. Coli assay under LED lamps, colony count; conditions: light
Method: Regarding the E. Coli assay tests in the above examples, the following procedure was used: • 1. E. Coli K-12 inoculated in 5 mL TSB and placed in a shaking incubator overnight. • 2. Dilute culture in 500 mL PBS (˜10̂8 CFU/mL) and placed in shaking incubator for 30 minutes at […]. • 3.15 mL samples created using 12 mL culture and a mixture of PBS buffer and sample compounds. • 4. Placed under LED lamps for 2 hours (40 W/m^2). • 5. Samples diluted to 10^−4 and culture controls diluted to 10^−5 for plating through series dilutions. • 6. 0.1 mL plated of each sample in triplicates on TSA base (10^−3 and 10^−4 for samples. 10^−4 and 10^−5 for controls). • 7. Incubated overnight at 37° C. • 8. Colonies counted next morning and recorded.

[3] = Table 16B, light, Chlorin Rate 5 μM
[4] = Table 16B, light, Chlorin Rate 10 μM
[5] = Table 16B, light, Chlorin Rate 31 μM
[6] = Table 22A, dark, rate 10 μM, growth between 48 and 72 hours
[7] = Table 22B, light, rate 10 μM, growth between 48 and 72 hours
[8] = Table 13, 1 mM Curcumin in 0.25% Tween 80 solution

In the case of `C=CC1=C(C)c2cc3[n-]c(cc4[n-]c(cc5nc(cc1n2)C(C)=C5C=C)c(C)c4CCC(=O)O)c(CCC(=O)O)c3C.[Zn+2]` [Zn Protoporphyrin IX (PPIX), Zinc Protoporphyrin IX], the “% Inhibition” value (Sclerotinia homoeocarpa [1]; Table 19A, light, rate 10 μM) is reported as 7.50% and the “Mean Radial Growth” value (Sclerotinia homoeocarpa [1]; Table 19A, light, rate 10 μM) is reported as 10.28 mm.

`O=C(OC[C@H]1O[C@@H](OC(=O)c2cc(O)c(O)c(OC(=O)c3cc(O)c(O)c(O)c3)c2)[C@H](OC(=O)c2cc(O)c(O)c(OC(=O)c3cc(O)c(O)c(O)c3)c2)[C@@H](OC(=O)c2cc(O)c(O)c(OC(=O)c3cc(O)c(O)c(O)c3)c2)[C@@H]1OC(=O)c1cc(O)c(O)c(OC(=O)c2cc(O)c(O)c(O)c2)c1)c1cc(O)c(O)c(OC(=O)c2cc(O)c(O)c(O)c2)c1` [Tannic acid] gave an inhibition at 500 µM (Sclerotinia homoeocarpa [1]; Table 25A, dark, rate 500 μM) of -6.25%, an inhibition at 1500 µM (Sclerotinia homoeocarpa [1]; Table 25A, dark, rate 1500 μM) of 7.29% and an inhibition at 500 µM (Sclerotinia homoeocarpa [1]; Table 25B, light, rate 500 μM) of -9.69%. For the same compound, the inhibition at 1500 µM (Sclerotinia homoeocarpa [1]; Table 25B, light, rate 1500 μM) was 16.3%, the “Mean Radial Growth” value (Sclerotinia homoeocarpa [1]; Table 25A, dark, rate 500 μM) was 11.33 mm and the “Mean Radial Growth” value (Sclerotinia homoeocarpa [1]; Table 25A, dark, rate 1500 μM) was 9.89 mm. The “Mean Radial Growth” value (Sclerotinia homoeocarpa [1]; Table 25B, light, rate 500 μM) was 11.94 mm and the “Mean Radial Growth” value (Sclerotinia homoeocarpa [1]; Table 25B, light, rate 1500 μM) was 9.11 mm.

For Aluminum chlorin e6 [AlCe6], the “% Inhibition” value (Sclerotinia homoeocarpa [2]; Table 16A, dark, rate 5 μM) was 1.85%, the “Mean Radial Growth” value (Sclerotinia homoeocarpa [2]; Table 16A, dark, rate 5 μM) was 13.8 mm and the “% Inhibition” value (Sclerotinia homoeocarpa [2]; Table 16A, dark, rate 10 μM) was 3.70%. The “Mean Radial Growth” value (Sclerotinia homoeocarpa [2]; Table 16A, dark, rate 10 μM) was 13.0 mm, the “% Inhibition” value (Sclerotinia homoeocarpa [2]; Table 16A, dark, rate 31 μM) was 3.09% and the “Mean Radial Growth” value (Sclerotinia homoeocarpa [2]; Table 16A, dark, rate 31 μM) was 13.1 mm. For the same compound, the “% Inhibition” value (Sclerotinia homoeocarpa [2]; [3]) was 11.0%, the “Mean Radial Growth” value (Sclerotinia homoeocarpa [2]; [3]) was 11.4 mm and the “% Inhibition” value (Sclerotinia homoeocarpa [2]; [4]) was 41.6%. For the same compound, the “Mean Radial Growth” value (Sclerotinia homoeocarpa [2]; [4]) was 7.5 mm, the “% Inhibition” value (Sclerotinia homoeocarpa [2]; [5]) was 100.0% and the “Mean Radial Growth” value (Sclerotinia homoeocarpa [2]; [5]) was 0.0 mm. The “% Inhibition” value (Sclerotinia homoeocarpa [1]; Table 21A, dark, rate 1 μM) was −4%, the “Mean Radial Growth” value (Sclerotinia homoeocarpa [1]; Table 21A, dark, rate 1 μM) was 13 mm and the “% Inhibition” value (Sclerotinia homoeocarpa [1]; Table 21A, dark, rate 10 μM) was −5.33%. The “Mean Radial Growth” value (Sclerotinia homoeocarpa [1]; Table 21A, dark, rate 10 μM) was 13.17 mm, the “% Inhibition” value (Sclerotinia homoeocarpa [1]; Table 21B, light, rate 1 μM) was −2.18% and the “Mean Radial Growth” value (Sclerotinia homoeocarpa [1]; Table 21B, light, rate 1 μM) was 13 mm. The “% Inhibition” value (Sclerotinia homoeocarpa [1]; Table 21B, light, rate 10 μM) was 62.45% and the “Mean Radial Growth” value (Sclerotinia homoeocarpa [1]; Table 21B, light, rate 10 μM) was 4.78 mm.

With `CC1=C(CCC(=O)O)c2cc3[nH]c(cc4nc(cc5[nH]c(cc1n2)c(C(C)O)c5C)C(C(C)O)=C4C)c(C)c3CCC(=O)O.Cl.Cl` (stereo not shown) [Hematoporphyrin IX dichloride (HemIX), hematoporphyrin IX dichloride] the “% Inhibition” value (Sclerotinia homoeocarpa [1]; [6]) was −5.45%, the “Mean Radial Growth” value (Sclerotinia homoeocarpa [1]; [6]) was 15.06 mm and the “% Inhibition” value (Sclerotinia homoeocarpa [1]; [7]) was 38.87%. The “Mean Radial Growth” value (Sclerotinia homoeocarpa [1]; [7]) was 8.39 mm.

For `COc1cc(/C=C/C(=O)CC(=O)/C=C/c2ccc(O)c(OC)c2)ccc1O` [Curcumin], the inhibition at 500 µM (Sclerotinia homoeocarpa [2]; Table 9A, dark, Curcumin 500 μM in 0.25% Tween 80, read-out: % Inhibition) was 11.4%, the inhibition at 1000 µM (Sclerotinia homoeocarpa [2]; Table 9A, dark, Curcumin 1000 μM in 0.25% Tween 80, read-out: % Inhibition) was 33% and the inhibition at 500 µM (Sclerotinia homoeocarpa [2]; Table 9B, light, Curcumin rate 500 μM in 0.25% Tween 80, read-out: % Inhibition) was 8.1%. For the same compound, the inhibition at 1000 µM (Sclerotinia homoeocarpa [2]; Table 9B, light, Curcumin rate 1000 μM in 0.25% Tween 80, read-out: % Inhibition) was 28.9%, the “Mean Radial Growth” value (Sclerotinia homoeocarpa [2]; Table 9A, dark, Curcumin 500 μM in 0.25% Tween 80) was 13.1 mm and the “Mean Radial Growth” value (Sclerotinia homoeocarpa [2]; Table 9A, dark, Curcumin 1000 μM in 0.25% Tween 80) was 9.9 mm. The “Mean Radial Growth” value (Sclerotinia homoeocarpa [2]; Table 9B, light, Curcumin rate 500 μM in 0.25% Tween 80) was 12.4 mm, the “Mean Radial Growth” value (Sclerotinia homoeocarpa [2]; Table 9B, light, Curcumin rate 1000 μM in 0.25% Tween 80) was 9.6 mm and the “% Inactivation” value (E. Coli K-12; [8]) was 86.0%. It also gave a CFU/mL (E. Coli K-12; [8]) of 1.24E+06 CFU/mL and a LogCFU/mL (E. Coli K-12; [8]) of 6.09 LogCFU/mL.

Work on `O=C(O)CC(NC(CC(=O)O)C(=O)O)C(=O)O` (stereo not shown) [Baypure CX (IDS), tetrasodium iminodisuccinate] yielded an inhibition at 500 µM (Sclerotinia homoeocarpa [2]; Table 14A, dark, rate 500 μM) of 6.2%, an inhibition at 1000 µM (Sclerotinia homoeocarpa [2]; Table 14A, dark, rate 1000 μM) of 15.2% and an inhibition at 2000 µM (Sclerotinia homoeocarpa [2]; Table 14A, dark, rate 2000 μM) of 31.3%. For the same compound, the inhibition at 500 µM (Sclerotinia homoeocarpa [2]; Table 14B, light, rate 500 μM) was 8.6%, the inhibition at 1000 µM (Sclerotinia homoeocarpa [2]; Table 14B, light, rate 1000 μM) was 18% and the inhibition at 2000 µM (Sclerotinia homoeocarpa [2]; Table 14B, light, rate 2000 μM) was 30.9%. For the same compound, the “Mean Radial Growth” value (Sclerotinia homoeocarpa [2]; Table 14A, dark, rate 500 μM) was 12.7 mm, the “Mean Radial Growth” value (Sclerotinia homoeocarpa [2]; Table 14A, dark, rate 1000 μM) was 11.4 mm and the “Mean Radial Growth” value (Sclerotinia homoeocarpa [2]; Table 14A, dark, rate 2000 μM) was 9.3 mm. The “Mean Radial Growth” value (Sclerotinia homoeocarpa [2]; Table 14B, light, rate 500 μM) was 11.8 mm, the “Mean Radial Growth” value (Sclerotinia homoeocarpa [2]; Table 14B, light, rate 1000 μM) was 10.6 mm and the “Mean Radial Growth” value (Sclerotinia homoeocarpa [2]; Table 14B, light, rate 2000 μM) was 8.9 mm. The “% Inactivation” value (E. Coli K-12; Table 11, 5 mM Baypure CX) was 67.8%, the CFU/mL (E. Coli K-12; Table 11, 5 mM Baypure CX) was 2.09E+06 CFU/mL and the LogCFU/mL (E. Coli K-12; Table 11, 5 mM Baypure CX) was 6.32 LogCFU/mL.

In the case of `C[n+]1ccc(-c2c3nc(c(-c4cc[n+](C)cc4)c4ccc([nH]4)c(-c4cc[n+](C)cc4)c4nc(c(-c5cc[n+](C)cc5)c5ccc2[nH]5)C=C4)C=C3)cc1.Cc1ccc(S(=O)(=O)[O-])cc1.Cc1ccc(S(=O)(=O)[O-])cc1.Cc1ccc(S(=O)(=O)[O-])cc1.Cc1ccc(S(=O)(=O)[O-])cc1` [meso-Tetra (N-methyl-4-pyridyl) porphine tetra tosylate], the “% Inhibition” value (Sclerotinia homoeocarpa [1]; Table 31A, dark, rate 0.1 μM) is reported as 4.17%, the “Mean Radial Growth” value (Sclerotinia homoeocarpa [1]; Table 31A, dark, rate 0.1 μM) is reported as 14.06 mm and the “% Inhibition” value (Sclerotinia homoeocarpa [1]; Table 31B, light, rate 0.1 μM) is reported as 34.63%. The “Mean Radial Growth” value (Sclerotinia homoeocarpa [1]; Table 31B, light, rate 0.1 μM) was 8.39 mm.
